Measured values as given in US20050112573A1, “Method of detecting toxic substance” (priority 2001, published 2005).

Test system: yeast genes (level of expressed mRNA)
Assay: DNA chip analysis of expressed mRNA of yeast genes after 2 h culture with a toxic chemical substance
Format: cell-based, Saccharomyces cerevisiae S288C
Description: Yeast (Saccharomyces cerevtisiae S288C (α SUC2mal mel gap2 CUP1)) were cultured at 25° C. on YPD medium (yeast extract 1%, polypepton 2%, glucose 2%). One of toxic chemical substances was added to the cell at logarithmic growth phase, and the cell was further cultured for two hours. Cell was cultured without any chemical substance in the same condition, and was used as control. Concentrations of the chemical substances were defined to inhibit the growth of the yeast but not lead to death.
After the completion of cultivation, the culture was centrifuged to collect the cells. To the cells, sodium acetate buffer (50 mM sodium acetate, 10 mM EDTA, 1% SDS) was added, and the mixture was shaken at 65° C. for five minutes, followed by returning to room temperature, and obtaining the supernatant, which procedure was repeated two times. To the supernatant, ½ amount of a solution of phenol/chloroform was added, and the mixture was centrifuged to give a supernatant, which was added with an equal amount of chloroform, and the mixture was centrifuged to give a supernatant. To the supernatant, an equal amount of isopropanol containing 0.3 M sodium acetate was added, and the mixture was allowed to stand at room temperature for 30 minutes, after which the mixture was centrifuged to give a sediment of the whole RNAs. Seventy % ethanol was added to the sediment, and the mixture was again centrifuged to give a sediment, which was then dried and dissolved in water. mRNA was isolated from the whole RNAs as followings. In view of the fact that a poly A chain is attached to the 3′ terminus of mRNA, a polynucleotide having a poly T structure which was immobilized on the surface of latex beads was used to trap the mRNA, and then the mRNA was washed and eluted with spine column (Oligotex-dT30<Super>mRNA Purification Kit, Takara). Reverse transcription of the mRNA was conducted with a reverse transcriptase (Super Script II Reverse Transcriptase; catalogue No. 18064-014, GibcoBRL) using fluorescence-labeled nucleotides to give cDNAs that were introduced with Cy3-dUTP or Cy5-dUTP during the reverse transcription.
The labeled cDNAs were dissolved in TE buffer (10 mM Tris-HCl/1 mM EDTA, pH8.0), and the solution was dropped on the DNA chip containing the whole genes of yeast (DNA Chip Research Inc. Japan) so that the cDNAs were hybridized on the DNA chip at 65° C. for over 12 hours. The fluoresces intensity of the DNA chip was read with a scanner, and the ratio relative to the fluorescence intensity resulting from the absence of chemical substance was estimated as the following, which is shown in Tables 1 to 9: [formula]
In the Tables, “Intensity” indicated in the rightmost column is a value of the level of expressed mRNA of each gene in control cells as divided by the average level of the expressions of the whole genes.

SMILES: C[S+](C)[O-] [(15), dimethylsulfoxide]
- The level of expressed mRNA in the presence of chemical substance/absence: YDR133C (gene YDR133C): 0.6
- The level of expressed mRNA in the presence of chemical substance/absence: YDR140W (gene YDR140W): 0.9
- The level of expressed mRNA in the presence of chemical substance/absence: YDR221W (gene YDR221W): 1.0
- The level of expressed mRNA in the presence of chemical substance/absence: YDR250C (gene YDR250C): 0.7
- The level of expressed mRNA in the presence of chemical substance/absence: YDR271C (gene YDR271C): 1.3
- The level of expressed mRNA in the presence of chemical substance/absence: YDR278C (gene YDR278C): 0.7
- The level of expressed mRNA in the presence of chemical substance/absence: YDR281C (gene YDR281C): 0.3
- The level of expressed mRNA in the presence of chemical substance/absence: YDR316W (gene YDR316W): 1.3
- The level of expressed mRNA in the presence of chemical substance/absence: YDR338C (gene YDR338C): 0.8
- The level of expressed mRNA in the presence of chemical substance/absence: YDR366C (gene YDR366C): 1.4
- level of expressed mRNA in the presence of chemical substance/in its absence (gene YDR380W): 2.4
- level of expressed mRNA in the presence of chemical substance/in its absence (gene YDR410C): 1.2
- The level of expressed mRNA in the presence of chemical substance/absence: YDR421W (gene YDR421W): 1.9
- The level of expressed mRNA in the presence of chemical substance/absence: YDR425W (gene YDR425W): 1.3
- The level of expressed mRNA in the presence of chemical substance/absence: YDR485C (gene YDR485C): 1.3
- level of expressed mRNA in the presence of chemical substance/in its absence (gene YDR487C): 1.0
- level of expressed mRNA in the presence of chemical substance/in its absence (gene YDR502C): 8.2
- The level of expressed mRNA in the presence of chemical substance/absence: YDR504C (gene YDR504C): 1.2
- level of expressed mRNA in the presence of chemical substance/in its absence (gene YEL011W): 0.4
- level of expressed mRNA in the presence of chemical substance/in its absence (gene YEL020C): 1.4
- The level of expressed mRNA in the presence of chemical substance/absence: YEL044W (gene YEL044W): 0.6
- level of expressed mRNA in the presence of chemical substance/in its absence (gene YER026C): 4.0
- level of expressed mRNA in the presence of chemical substance/in its absence (gene YER069W): 2.4
- The level of expressed mRNA in the presence of chemical substance/absence: YER092W (gene YER092W): 1.0
- The level of expressed mRNA in the presence of chemical substance/absence: YER182W (gene YER182W): 0.5
- The level of expressed mRNA in the presence of chemical substance/absence: YFL042C (gene YFL042C): 1.1
- level of expressed mRNA in the presence of chemical substance/in its absence (gene YFR015C): 0.4
- The level of expressed mRNA in the presence of chemical substance/absence: YFR026C (gene YFR026C): 2.3
- The level of expressed mRNA in the presence of chemical substance/absence: YFR056C (gene YFR056C): 0.9
- level of expressed mRNA in the presence of chemical substance/in its absence (gene YGL001C): 0.9
- level of expressed mRNA in the presence of chemical substance/in its absence (gene YGL022W): 4.0
- level of expressed mRNA in the presence of chemical substance/in its absence (gene YGL039W): 1.5
- The level of expressed mRNA in the presence of chemical substance/absence: YGL041C (gene YGL041C): 0.7
- The level of expressed mRNA in the presence of chemical substance/absence: YGL045W (gene YGL045W): 1.5
- The level of expressed mRNA in the presence of chemical substance/absence: YGL057C (gene YGL057C): 0.7
- The level of expressed mRNA in the presence of chemical substance/absence: YGL088W (gene YGL088W): 0.4
- level of expressed mRNA in the presence of chemical substance/in its absence (gene YGL104C): 0.9
- level of expressed mRNA in the presence of chemical substance/in its absence (gene YGL126W): 2.8
- level of expressed mRNA in the presence of chemical substance/in its absence (gene YGL134W): 0.5
- level of expressed mRNA in the presence of chemical substance/in its absence (gene YGL154C): 0.8
- The level of expressed mRNA in the presence of chemical substance/absence: YGL183C (gene YGL183C): 1.7
- level of expressed mRNA in the presence of chemical substance/in its absence (gene YGL209W): 3.2
- The level of expressed mRNA in the presence of chemical substance/absence: YGL223C (gene YGL223C): 0.7
- level of expressed mRNA in the presence of chemical substance/in its absence (gene YGL253W): 0.8
- The level of expressed mRNA in the presence of chemical substance/absence: YGR038W (gene YGR038W): 1.1
- level of expressed mRNA in the presence of chemical substance/in its absence (gene YGR060W): 1.4
- The level of expressed mRNA in the presence of chemical substance/absence: YGR139W (gene YGR139W): 2.3
- The level of expressed mRNA in the presence of chemical substance/absence: YGR156W (gene YGR156W): 1.3
- The level of expressed mRNA in the presence of chemical substance/absence: YGR198W (gene YGR198W): 0.9
- The level of expressed mRNA in the presence of chemical substance/absence: YGR210C (gene YGR210C): 1.3
- The level of expressed mRNA in the presence of chemical substance/absence: YGR211W (gene YGR211W): 0.5
- The level of expressed mRNA in the presence of chemical substance/absence: YGR237C (gene YGR237C): 1.1
- The level of expressed mRNA in the presence of chemical substance/absence: YGR243W (gene YGR243W): 0.8
- The level of expressed mRNA in the presence of chemical substance/absence: YGR250C (gene YGR250C): 1.2
- The level of expressed mRNA in the presence of chemical substance/absence: YGR266W (gene YGR266W): 1.1
- The level of expressed mRNA in the presence of chemical substance/absence: YGR277C (gene YGR277C): 0.9
- level of expressed mRNA in the presence of chemical substance/in its absence (gene YGR282C): 2.9
